According to BindingDB's records for PubMed 33548635 (University of Aveiro, 2021):

Columns and labels:
[1] = target: T1, Amyloid-beta precursor protein (Homo sapiens, UniProt P05067); assay: Inhibition of amyloid beta 40 secretion transfected in human H4 cells incubated for 20 to 24 hrs by LPECL assay
[2] = target: T1, Amyloid-beta precursor protein; assay: Inhibition of amyloid beta 42 secretion transfected in human H4 cells incubated for 20 to 24 hrs by LPECL assay

T1 sequence (P05067 whole entry): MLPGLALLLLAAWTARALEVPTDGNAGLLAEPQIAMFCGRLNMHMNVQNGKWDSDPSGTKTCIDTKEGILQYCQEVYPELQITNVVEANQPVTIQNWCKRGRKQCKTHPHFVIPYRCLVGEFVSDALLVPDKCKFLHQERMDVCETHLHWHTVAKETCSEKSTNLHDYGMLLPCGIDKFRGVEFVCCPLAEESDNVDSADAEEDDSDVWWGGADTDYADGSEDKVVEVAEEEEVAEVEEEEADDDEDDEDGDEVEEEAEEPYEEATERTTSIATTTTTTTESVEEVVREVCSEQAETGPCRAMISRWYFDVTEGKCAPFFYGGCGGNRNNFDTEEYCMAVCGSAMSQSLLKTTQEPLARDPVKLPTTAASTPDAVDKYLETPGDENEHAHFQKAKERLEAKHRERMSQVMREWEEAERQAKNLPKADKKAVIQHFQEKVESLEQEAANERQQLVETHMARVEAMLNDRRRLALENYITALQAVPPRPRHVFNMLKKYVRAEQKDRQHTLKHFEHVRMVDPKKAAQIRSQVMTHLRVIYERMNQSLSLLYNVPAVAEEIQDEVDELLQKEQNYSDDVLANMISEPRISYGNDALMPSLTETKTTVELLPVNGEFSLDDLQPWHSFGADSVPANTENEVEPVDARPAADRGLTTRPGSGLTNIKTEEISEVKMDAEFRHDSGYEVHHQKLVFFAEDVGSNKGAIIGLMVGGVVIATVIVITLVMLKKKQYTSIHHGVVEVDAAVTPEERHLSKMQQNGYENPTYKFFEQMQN

SMILES | IC50 [1] [µM] | IC50 [2] [µM]
COc1cc(/C=C/c2cc(/C=C/c3ccc(O)c(OC)c3)n(C)n2)ccc1O | 10.4 | 9
COc1cc(/C=C/c2cc(/C=C/c3ccc(O)c(OC)c3)n(-c3cccc([N+](=O)[O-])c3)n2)ccc1O | 15.1 | 14.2
COc1cc(/C=C/c2cc(/C=C/c3ccc(O)c(OC)c3)n(Cc3ccccc3)n2)ccc1O | 11.5 | 15.3
COc1cc(/C=C/c2cc(/C=C/c3ccc(O)c(OC)c3)n(-c3ccc(C)cc3)n2)ccc1O | 8.7 | 5
COc1cc(/C=C/c2cc(/C=C/c3ccc(O)c(OC)c3)[nH]n2)ccc1O [4-(2-(5-(4-hydroxy-3-methoxystyryl)-1H-pyrazol-3-yl)vinyl)-2-methoxyphenol] | 9.7 | 8.7
COc1cc(/C=C/c2cc(/C=C/c3ccc(O)c(OC)c3)n(CCO)n2)ccc1O | 17.8 | 17.3
COc1cc(/C=C/c2cc(/C=C/c3ccc(OCC(=O)O)c(OC)c3)on2)ccc1OCC(=O)O | 14.1 | > 40
COc1cc(/C=C/c2cc(/C=C/c3ccc(O)c(OC)c3)n(-c3ccccc3)n2)ccc1O | 11.3 | 14.2
COc1cc(/C=C/c2cc(/C=C/c3ccc(OCC(=O)OC(C)(C)C)c(OC)c3)on2)ccc1OCC(=O)OC(C)(C)C | > 40 | > 40

Stronger by IC50 [1], values ahead:

IC50 [1] [µM] | IC50 [2] [µM] | SMILES
6.3 | 3.5 | COc1cc(/C=C/c2cc(/C=C/c3ccc(O)c(OC)c3)n(-c3cc(Cl)cc(Cl)c3)n2)ccc1O
6.2 | – | COc1cc(/C=C/c2cc(/C=C/c3ccc(O)c(OC)c3)n(-c3ccc([N+](=O)[O-])cc3)n2)ccc1O
6.9 | 4.4 | COc1cc(/C=C/c2cc(/C=C/c3ccc(O)c(OC)c3)n(-c3ccc(C(C)C)cc3)n2)ccc1O
7.4 | 6.8 | COc1cc(/C=C/c2cc(/C=C/c3ccc(O)c(OC)c3)on2)ccc1O [4-((E)-2-{3-[(E)-2-(4-hydroxy-3-methoxyphenyl)vinyl]isoxazol-5-yl}vinyl)-2-methoxyphenol]
5.4 | 4.8 | COc1cc(/C=C/c2cc(/C=C/c3ccc(O)c(OC)c3)n(-c3ccc(Cl)nn3)n2)ccc1O
